Test results from US20250367268A1, “Compositions and Methods for Treating Internal Bleeding and Hemorrhage” (priority 2024, published 2025).

How the values were obtained:
[1] = system: Trauma and 27 ml/kg hemorrhagic shock; assay: Second albumin study: trauma and 27 ml/kg hemorrhagic shock model, albumin bolus then crystalloid as needed; assay type: in vivo
Protocol: Rats were acclimated for at least 5 days after arrival at the facility prior to experimental procedures. Trauma and 27 ml/kg hemorrhagic shock models in the art were used with some modifications: 1) an extended observation period considered entirely pre-hospital to represent prolonged field care and 2) a reduction in isoflurane during hemorrhage, intended to reduce the mortality prior to resuscitation (FIG. 28). Rats were assigned into 4 treatment groups: Crystalloid (N=15), OA-saturated BSA (OA-BSA; N=17), CA-saturated BSA (CA-BSA; N=17), and pharmaceutical HSA (N=17). Adult, male Sprague Dawley rats (Charles River Laboratories, Houston, TX) between 325 and 400 g in body weight (BW) were induced with isoflurane (4%) in medical air, then maintained at 2-3% throughout instrumentation. Core temperature was maintained (36-37° C.) using a heating pad and monitored with a rectal probe (Physitemp, Clifton, NJ). The carotid artery was cannulated for continuous pressure recording, the left femoral artery for controlled hemorrhage, and the left femoral vein for blood sampling and resuscitation fluid administration. PE50 tubing for vessel cannulations was soaked overnight in heparin to reduce clotting.
Laparotomy was performed to induce trauma, then the opening was covered with plastic wrap. […]

[2] = system: hemorrhagic shock; assay type: in vivo, rats
Protocol: Two studies of resuscitation by albumin after hemorrhage were performed. In the first study, resuscitation by a crystalloid (control) was compared to resuscitation with either a bolus of bovine serum albumin (BSA) saturated with oleic acid (OA-BSA) or a bolus of NEFA-free albumin, followed by crystalloid, as needed. As commercially available pharmaceutical grade albumin is human albumin (HSA) that is nearly saturated with caprylic acid, instead of oleic acid, in the second study OA-BSA, caprylic acid-saturated BSA (CA-BSA), and pharmaceutical grade human serum albumin (HSA) were compared. A crystalloid-only group (“Crystalloid Only Group”) was also run as a control. […] There were no significant differences among the Albumin Groups (all containing high concentrations of NEFA) in any of the other measurements.
Laparotomy was performed to induce trauma, then the opening was covered with plastic wrap. The right hind leg was elevated and an inflatable tourniquet (digit cuff, Hokanson, Bellevue, WA) was positioned on the leg, but not yet inflated. For the second albumin study, isoflurane was lowered to 1% immediately before start of hemorrhage. Rats were hemorrhaged (2 ml/min/kg BW) by syringe pump until MAP dropped to 35 mmHg (designated as time T=0 h). At that time, the tourniquet was inflated using a Portable Tourniquet System (Delfi Medical, Vancouver, Canada), representing first aid. The controlled hemorrhage rate was then reduced to 0.6 ml/min/kg to simulate hemorrhage not controlled by tourniquet (e.g., from another injury site or imperfect application). Blood pressure was maintained at 33-38 mmHg by adjusting the draw rate (0.2-0.8 ml/min/kg), until the total hemorrhage reached 27 ml/kg. […] The bolus size was chosen as the estimated dosage needed to replace the albumin lost to hemorrhage. […] At T=2 h, representing the maximum recommended time before conversion to hemostatic dressing 16, the tourniquet was deflated and removed. Surviving animals were euthanized at T=4 h by intravenous administration of 0.2 ml of sodium pentobarbital euthanasia solution (Beuthanasia, Merck Animal Health, Madison, NJ), while still under anesthesia. After euthanasia, the right lung was harvested for moisture analysis (MA160, Sartorious, Bohemia, NY) and the left lung for collection of BALF (3X bronchoalveolar lavage fluid with 3 ml saline). Following the final lavage, the left lung was infused with formalin fixative for histological analysis. The liver, heart, spleen, kidney, and jejunum were also collected and fixed in formalin for histological analysis.

CA-BSA: caprylic acid-saturated BSA
loss of protein from the circulation (plasma/total protein T2 to T4) ([1]; second study, FIG. 2 and FIG. 3): significant drop

NEFA-free albumin: albumin preparation with a NEFA content of 0-0.14% by weight of albumin; bovine serum albumin in the experiments
amount of resuscitation fluid required to keep pressure at a sufficient level ([2]; first study): 46 mL/kg
effect on pressure relative to OA-BSA and Crystalloid Only Group ([2]; first study): intermediate between the other two groups
vascular leakage ([2]; rat, in vivo): did not cause vascular leakage

OA-BSA: bovine serum albumin (BSA) saturated with oleic acid, 25% bolus
loss of protein from the circulation (plasma/total protein T2 to T4) ([1]; rat, in vivo): significant drop
amount of resuscitation fluid required to keep pressure at a sufficient level ([2]; first study): 6 mL/kg
significantly reduced mortality compared to the Crystalloid Only Group ([2]; first study): significantly reduced mortality
mortality ([2]; first study, FIG. 4): 8%
